Measured values taken from a melting point compilation (Tetko et al.; mined from patent text by program, amines drawn as free bases though some values may be those of a salt).

Compound	melting point [°C]
Cc1nc2ccccn2c(=O)c1CCN1CCC2C(C1)c1ccccc1N2Cc1ccccc1 (stereo not drawn)	145
C(=C\c1nc(COc2ccc(CCCn3ccnc3)cc2)co1)/c1ccccc1	127 to 128
CCCC=CCC(CC(=O)Nc1cc(Cc2n[nH]c(=O)c3ccccc23)ccc1F)C(=O)O (stereo not drawn)	179 to 181
O=C(O)Cc1ccc(CN2CCN(C(c3ccccc3)c3ccccc3)CC2)cc1	183 to 185
O=C(CCO)N1c2ccccc2CCC1CN1CCN(c2cccc3[nH]ccc23)CC1 (stereo not drawn)	58 to 61
O=c1c2ccccc2nc(-c2sc(Nc3ccccc3)nc2-c2ccccc2)n1-c1ccccc1Cl	210 to 212
CC(C)c1c(C=O)c(-c2ccc(F)cc2)n2c1CCCC2	100 to 101
CCCc1ncc(CN2C(=O)c3ccccc3C2=O)s1	72
CCNC(=O)Nc1nc2nc(NCCN(CC)CC)ncc2cc1-c1c(Cl)cccc1Cl	86.5 to 89.5
O=C1Nc2ccc(F)cc2C1c1ncnc2c1cnn2C1CCCCC1 (stereo not drawn)	282 to 286
Cc1cn(COC(CO)CO)c(=O)[nH]c1=O	156 to 157
CCNC(=O)c1occc1[Si](C)(C)C	69 to 72
Cc1cc(-c2c(F)cc3c(=O)c(C(=O)O)cn4c3c2SC[C@@H]4C)cc(C)n1	328 to 331
CCOC(=O)c1c2n(c3c(Cl)c(N4CCC(N(C)C)C4)c(F)cc3c1=O)C(C)S2 (stereo not drawn)	131 to 133
CN(C(=O)OC(C)(C)C)c1cc(Sc2cc(C(C)(C)C)c(O)c(C(C)(C)C)c2)ccc1[N+](=O)[O-]	140 to 141
CCCOc1ccc(F)cc1C(N)=O	114 to 116
COC(=O)CSc1nc(Nc2ccc(N3CCOCC3)cc2)ncc1[N+](=O)[O-]	188 to 190
COC1(OCC#Cc2ccc(Cl)nc2)C=CC=NC1 (stereo not drawn)	100 to 101
C=C(CNNC(=O)OC(C)(C)C)c1ccccc1	153 to 154
CCCCCCCCNC(=O)N(C)C[C@H](O)[C@@H](O)[C@H](O)[C@H](O)CO	111
CCCCCCCCCCCCCCOc1cccc(CC(=O)Nc2cccc(CBr)c2)c1	104 to 106
Clc1cccc(-c2nc(NC3CCCCC3)c3ccccc3n2)n1	218 to 221

Compound	melting point [°C]
CC(=O)OC1CSC(Oc2cncc(-c3ccc(N4CCCCC4)cc3)c2)C(OC(C)=O)C1OC(C)=O (stereo not drawn)	196
O=c1c2[nH]c(Cl)nc2n(CC2CC2)c(=O)n1CC1CC1	220
C#Cc1cc2c(cc1Cl)C=C(C(=O)O)C(C(F)(F)F)O2 (stereo not drawn)	> 300
Cc1ccc(-n2nc3c4cc(CCc5ccccc5)ccc4[nH]c(=O)n3c2=O)cc1	303
CC(=O)OC1CSC(Oc2cccc(-c3cccnc3F)c2)C(OC(C)=O)C1OC(C)=O (stereo not drawn)	116
CCOC(=O)C1=C(C)NC(=S)N(C(=O)OCC)C1c1ccccc1Cl (stereo not drawn)	126 to 128
NC(=O)c1ncn2c1[C@@H]1CCN1C(=O)c1c-2cccc1C(F)(F)F	> 300
CCN1C(=O)C(C)(C)C(=O)N(C)c2cc(CN(CCn3cc(C)c4occc4c3=O)Cc3cnc(C)nc3)ccc21	166 to 167
O=C(O)C=Cc1ccc(Oc2nsnc(Cl)c2=O)cc1	> 280
CCCn1c(=O)c2[nH]c(-c3cc(C)n(CC(=O)Nc4ccc(Cl)cc4)n3)nc2n(CCC)c1=O	261 to 265
CCCc1ccc(-c2ccc(=O)[nH]n2)cc1	180 to 182
Cc1cc(C)c([N+](=O)[O-])cc1NC(=O)CC#N	229 to 230
COc1cc(OCCCN2CCC[C@H]2C)ccc1-c1ccc(=O)[nH]n1	182 to 186
CN1CCC(c2c[nH]c3ccc(NC(=O)c4ccccc4F)nc23)CC1	125 to 126
CN(C)C(=O)c1nc2cnc3ccccc3c2[nH]1	284 to 286
Cc1oc(=O)oc1Cn1cc[nH]c(=O)c1=O	225 to 226
CC(=O)Nc1nc(CCc2ccc(N)cc2)c(C(=O)NCc2ccc(S(C)(=O)=O)cc2)s1	78 to 80
O=S1(=O)N=CN(C2CCCCCC2)c2cc(Cl)ccc21	209 to 211
CCn1ncc2c1ncc1c(N3CCOCC3)nc3cc(C)nn3c12	179 to 180
CCCCCCc1ccc(C=CC(=O)c2ccc(OCC=C(C)C)cc2OCC(=O)O)cc1	106 to 108
COc1cc2ncnc(N3CCN(C(=S)Nc4cc(C)cs4)CC3)c2cc1OC	214 to 216

Now from value to compound:

melting point [°C]	Compound
180 to 183	Cc1ccncc1C(O)c1ccc2cc(C(=O)OC(C)C)ccc2c1 (stereo not drawn)
134 to 136	COc1ccc2c(c1)c(Cc1nc(-c3ccc(F)cc3F)cs1)c(C)n2C(=O)c1ccc(Cl)cc1
133 to 135	Cc1ccc(S(C)(=O)=O)cc1-c1n[nH]c2nc(Oc3ccc(F)cc3F)ncc12
148 to 150	CNC(=O)c1c(-c2ccccc2)noc1CC(O)c1ccc(C)cc1 (stereo not drawn)
155 to 158	Nc1nc(C2CCN(C(=O)c3ccccc3)CC2)c2cc(Cl)ccc2n1
189 to 195	Nc1nc2ccccc2c2c1nc1n2C(COc2ccccc2)COC1 (stereo not drawn)
74 to 75	CCOC(=O)c1cnc(NN)nc1-c1ccccc1
182 to 183	O=c1ccn(CCO)c(C(O)c2cccnc2)c1OCc1ccccc1 (stereo not drawn)
245 to 248	CN(C(=O)C(F)(F)F)C1Cc2ccc(C(=O)Cn3cnc4cc(-c5ccc(Cl)cc5)sc4c3=O)cc2C1 (stereo not drawn)
267 to 268	CC(c1ccccc1)c1n[nH]c2c1c(=O)n(-c1ccccc1)c1ncccc21 (stereo not drawn)
98 to 100	CCCc1c(CSc2ncccc2OCC(=O)OCC)ccc(C(C)=O)c1O
181 to 183	O=C(NCc1ccccc1)c1ccnc(NC(=O)c2ccc(C(F)(F)F)cc2)c1
270	CC1=NN(c2ccc(C(=O)O)cc2)C(=O)C1=CNc1ccccc1C(C)C
131 to 133	Cc1ccc(S(=O)(=O)N2CCC[C@H](CC(=O)NC(C)C)c3ccccc32)cc1
200 to 201	CC(C(=O)c1c(O)c2cccnc2n(-c2cccc(C(F)(F)F)c2)c1=O)c1ccccc1 (stereo not drawn)
268 to 270	COc1ccc(NC(=O)N2CCc3cc(S(=O)(=O)N4CC(c5ccccc5)NC4=O)ccc32)cc1 (stereo not drawn)
202 to 204	CCCc1nc2c(N)nc3cc(-c4ccccc4)ccc3c2n1CCCC(C)=O
120 to 121	COc1ccc(CN2CC=C(/C=C/c3ccc(C#N)cc3)CC2)cc1
87 to 89	CCOC(=O)CCCCSc1nc(-c2ccccc2)c(-c2ccccc2)[nH]1
268	O=C(NC(Cc1ccc(OCc2ccccc2)cc1)C(=O)O)c1cn2cc(-c3ccncc3)ccc2n1 (stereo not drawn)
174 to 175	CCN(c1ccccc1)c1nc(=O)c2cccnc2s1
205	Cn1cncc1C(O)(c1ccc(Cl)cc1)c1ccc2nc(C=O)cc(-c3cccc(Cl)c3)c2c1 (stereo not drawn)
80	CC(c1ccccc1)C(CS)C(=O)NC(Cc1ccc(O)cc1)C(=O)O (stereo not drawn)
258 to 259	CC1(C)C=C(c2c[nH]c(-c3ccc(F)cc3)c2-c2ccncc2)CC(C)(C)N1
85.3 to 87.6	COC(=O)C1=C(SC)N(c2c(C)cc(C)cc2Cl)CCC1
